In patent EP4324461A1, “(E)-N-CINAMOYLAMINOALKANOLES WITH MELANOGENESIS INHIBITORY ACTIVITY” (UNIWERSYTET JAGIELLONSKI, priority 2022, dated 2024):

Tests used:
Hepatocarcinoma HepG2 = experiment: Safety, LDH test in HepG2; format: cell-based; conditions: 48 hours, positive control Triton X-100
Description: (§1) In order to test the safety of the compounds, both normal human cells were used: keratinocytes (HaCaT), fibroblasts (BJ), primary melanocytes that occur in the skin, as well as human cancer cells: the hepatocarcinoma line HepG2 and the neuroblastoma line SH-SY5Y, which are considered a model for the assessment of hepatocytotoxicity and neurocytotoxicity. The concentrations of the tested compounds in the range of 250-100 µM were used in the studies. The cell lines used in the research were purchased from the American Type Culture Collection (ATCC) and were cultured in media recommended by the manufacturer with the addition of FBS and antibiotics in an incubator ensuring appropriate culture conditions, i.e. humidity, temperature and CO2 concentration. Cells were seeded into multiwell plates and incubated with the test compounds for 48 hours. After this time, MTT and LDH tests were performed to assess cell viability. The MTT test is based on the ability to transform the substrate: [3-(4,5-dimethyl-2-thiazolyl)-2,5-diphenyl-2H-tetrazolium bromide into a colored product only by living cells. The absorbance at 570 nm, which corresponds to the absorption maximum for the product, is directly proportional to cell viability. The LDH test is based on testing the activity of the enzyme lactate dehydrogenase in the culture medium, which is released from cells as a result of damage to the cell membrane, e.g. as a result of cell death. Triton X-100 was used as a positive control in the test. The determination is colorimetric, the substrate is transformed by the released enzyme into a colored product, an increase in absorbance indicates a larger amount of the released enzyme, and thus confirms greater damage to cell membranes. Tables 7 and 8 present the results obtained, which correspond to the viability of cells incubated with the compounds in relation to the viability of cells constituting a control sample, i.e. incubated with the solvent (DMSO) at the same concentration as in the case of the groups tested in the MTT test or in relation to the results obtained for the Triton X-100 positive control in the LDH test. They indicate that the compounds are safe at the concentrations tested. Table 7. Viability of tested normal human cell lines: keratinocytes (HaCaT), fibroblasts (BJ) and primary melanocytes after incubation with the tested compounds - determination in the MTT test (% of solvent control ± SD) and LDH (percentage of positive control - Triton X-100.

Fibroblasts (BJ) = experiment: Safety, LDH test in fibroblasts; format: cell-based; conditions: 48 hours, positive control Triton X-100
Description: as §1

Primary melanocytes = experiment: Safety, MTT test in primary melanocytes; format: cell-based; conditions: 48 hours
Description: as §1

[1] = tested on: Balb/c 3T3 murine fibroblast cell line; experiment: Phototoxicity in Balb/c 3T3 fibroblasts (neutral red uptake)
Description: Balb/c 3T3 cells, which are an immortalized murine fibroblast cell line, were purchased at ATTC and cultured in the medium recommended by the manufacturer (DMEM GlutaMAX, newborn calf serum (BCS), antibiotics). After multiplication, cells were placed in 96-well plates, which were incubated for 24 hours, after which all wells of the plates were washed with 150 µL of balanced salt solution (HBSS). Then, after drying the plates, 100 µL of a solution of the tested compounds in HBSS with 2% FBS was added to each well and incubated for an hour. After this time, some of the plates were irradiated using the Suntest CPS+ sunlight simulator from Atlas with appropriate filters cutting off radiation with a wavelength <320 nm (UVA radiation intensity 5 J/cm^2). The second part of the plates was placed in radiation-free conditions for the same period of time. After the exposure time, the liquid was removed from all plates and the wells were washed twice with 150 µL of HBSS, then supplemented with fresh culture medium and incubated for 24 hours in an incubator (37 °C, 5% CO2). Viability was assessed in the neutral red uptake test, which is based on the ability of the dye to penetrate only into living cells. Dye uptake was confirmed by absorbance measurement at 540 nm. […] The appropriate coefficients were also calculated: mean phototoxic effect (MPE) and photoirritation factor (PIF). PIF is the ratio of the IC50 values of unirradiated to irradiated cells, while MPE is based on the comparison of concentration-response curves. […]

S. typhimurium TA1537 = experiment: Ames microplate test, TA1537; format: cell-based, Salmonella typhimurium;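 note: reference level is the mean solvent-control yellow wells plus SD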
Description: (§2) Bacteria were grown overnight in growth medium.
(§3) Table 9. Ames microplate test results.

S. typhimurium TA100 = experiment: Ames microplate test, TA100; format: cell-based, Salmonella typhimurium;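 note: reference level is the mean solvent-control yellow wells plus SD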
Description: as §2, §3

Structure (SMILES)	Hepatocarcinoma HepG2 LDH (Hepatocarcinoma HepG2; 100 µM)	Hepatocarcinoma HepG2 LDH (Hepatocarcinoma HepG2; 150 µM)	Hepatocarcinoma HepG2 LDH (Hepatocarcinoma HepG2; 200 µM)	Hepatocarcinoma HepG2 LDH (Hepatocarcinoma HepG2; 250 µM)	Fibroblasts (BJ) LDH (Fibroblasts (BJ); 100 µM)	Fibroblasts (BJ) LDH (Fibroblasts (BJ); 150 µM)	Fibroblasts (BJ) LDH (Fibroblasts (BJ); 200 µM)	Fibroblasts (BJ) LDH (Fibroblasts (BJ); 250 µM)	Primary melanocytes MTT (Primary melanocytes; 100 µM)	Primary melanocytes MTT (Primary melanocytes; 150 µM)	Primary melanocytes MTT (Primary melanocytes; 200 µM)	Primary melanocytes MTT (Primary melanocytes; 250 µM)	Increase in the number of yellow wells compared to the reference level (S. typhimurium TA1537; 0.5 mM, +S9)	Increase in the number of yellow wells compared to the reference level (S. typhimurium TA1537; 0.5 mM, without S9)	Increase in the number of yellow wells compared to the reference level (S. typhimurium TA1537; 1.0 mM, +S9)	Increase in the number of yellow wells compared to the reference level (S. typhimurium TA1537; 1.0 mM, without S9)	Increase in the number of yellow wells compared to the reference level (S. typhimurium TA1537; 2.0 mM, without S9)	Increase in the number of yellow wells compared to the reference level (S. typhimurium TA100; 0.5 mM, without S9)	Increase in the number of yellow wells compared to the reference level (S. typhimurium TA100; 1.0 mM, without S9)	Increase in the number of yellow wells compared to the reference level (S. typhimurium TA100; 2.0 mM, without S9)	other results
O=C(/C=C/c1ccccc1)NCCCCCO [Compound A-133, (2E)-N-(5-hydroxypentyl)-3-phenylprop-2-enamide]	5.31 percentage of positive control	7.07 percentage of positive control	9.65 percentage of positive control	16.13 percentage of positive control	5.00 percentage of positive control	4.47 percentage of positive control	14.72 percentage of positive control	28.31 percentage of positive control	103.69±2.57 % of solvent control	101.88±2.47 % of solvent control	97.05±2.96 % of solvent control	88.88±2.26 % of solvent control	0.18	1.07	0.36	0.54	0.54	0.60	1.03	0.57	phototoxic potential ([1]; Balb/c 3T3, neutral red uptake): do not have phototoxic potential; PIF ([1]; photoirritation factor: ratio of IC50 of unirradiated to irradiated cells): No phototoxicity; cytotoxicity towards the mouse fibroblasts ([1]; with and without exposure to UVA): devoid of cytotoxicity; Increase in the number of yellow wells compared to the reference level (S. typhimurium TA1537; 2.0 mM, +S9): 0.27; Increase in the number of yellow wells compared to the reference level (S. typhimurium TA100; 0.5 mM, +S9): 0.83; Increase in the number of yellow wells compared to the reference level (S. typhimurium TA100; 1.0 mM, +S9): 0.78; Increase in the number of yellow wells compared to the reference level (S. typhimurium TA100; 2.0 mM, +S9): 0.61
O=C(/C=C/c1ccc(Cl)cc1)NCCCO [H-330/21, (2E)-3-(4-chlorophenyl)-N-(3-hydroxypropyl)prop-2-enamide]	5.38 percentage of positive control	4.90 percentage of positive control	12.16 percentage of positive control	19.02 percentage of positive control	4.74 percentage of positive control	6.50 percentage of positive control	14.25 percentage of positive control	28.74 percentage of positive control	101.42±2.21 % of solvent control	97.02±4.49 % of solvent control	93.78±2.29 % of solvent control	90.27±2.25 % of solvent control									
Cc1ccc(/C=C/C(=O)NCCCCCO)cc1 [H-415/21, (2E)-N-(5-hydroxypentyl)-3-(4-methylphenyl)prop-2-enamide]	3.90 percentage of positive control	7.24 percentage of positive control	8.92 percentage of positive control	15.47 percentage of positive control	8.81 percentage of positive control	8.75 percentage of positive control	9.82 percentage of positive control	16.63 percentage of positive control	103.27±1.88 % of solvent control	99.89±2.43 % of solvent control	94.81±2.92 % of solvent control	87.64±1.44 % of solvent control		0.33		0.33	0.00	0.92	0.58	0.75	
O=C(/C=C/c1ccccc1)NCCCCCCO [H-425/21, (E)-N-(6-hydroxyhexyl)cinnamic acid amide]													1.33	0.09	0.00	0.18	0.82	0.73	0.80	0.73	Increase in the number of yellow wells compared to the reference level (S. typhimurium TA1537; 2.0 mM, +S9): 1.00; Increase in the number of yellow wells compared to the reference level (S. typhimurium TA100; 0.5 mM, +S9): 0.50; Increase in the number of yellow wells compared to the reference level (S. typhimurium TA100; 1.0 mM, +S9): 0.69; Increase in the number of yellow wells compared to the reference level (S. typhimurium TA100; 2.0 mM, +S9): 0.58
O=C(/C=C/c1ccc(Cl)cc1)NCCO [H-427/21, (2E)-3-(4-chlorophenyl)-N-(2-hydroxyethyl)prop-2-enamide]	3.09 percentage of positive control	4.45 percentage of positive control	5.98 percentage of positive control	13.51 percentage of positive control	2.75 percentage of positive control	5.92 percentage of positive control	9.00 percentage of positive control	17.32 percentage of positive control	102.20±2.24 % of solvent control	100.57±2.18 % of solvent control	93.78±2.18 % of solvent control	85.19±2.03 % of solvent control									
